Results as given in ChEMBL document CHEMBL1201862, “PubChem BioAssay data set” (2004).
Each block holds one molecule with its values, some of them ahead of it. Active and inactive are the calls of the source.

Assays:
[1] = AlphaScreen signal interference compounds, dose response, artefact control for ARNT-TACC3 interaction inhibitor project, biochemical, luminescence, cherry-pick (AID 651705); format: functional;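 also: AlphaScreen bead proximity signal that flags compounds interfering with the detection technology; potency reflects signal decrease which marks the compound as an assay artifact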
Vero = test: Vero cell toxicity, dose response, cytotoxicity control, plate reader, cherry-pick samples (AID 687020); format: functional, cell-based; conditions: Chlorocebus sabaeus
BHK-21 = test: BHK-21 cell toxicity, dose response, cytotoxicity control, plate reader, cherry-pick samples (AID 687030); format: functional, cell-based; conditions: Mesocricetus auratus
A549 = test: A549 cell toxicity, dose response, cytotoxicity control, plate reader, cherry-pick samples (AID 687028); format: functional, cell-based; conditions: Homo sapiens
[2] = ARNT/TACC3 interaction disruptors, potency, confirmation, biochemical, AlphaScreen, cherry-picked samples (AID 651703); format: functional, Homo sapiens;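 also: His-tagged ARNT PAS-B domain paired with GST-TACC3 E629A dimer coactivator fragment; potency of inhibitors that break up the complex and lower AlphaScreen signal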
[3] = biological target: 26S proteasome non-ATPase regulatory subunit 14 (Homo sapiens, UniProt O00487); test: inhibition of proteasome subunit RPN11 – biochemical, fluorescence polarization, uHTS hits, confirmation (AID 602368); format: functional
[4] = biological target: 72 kDa type IV collagenase (Homo sapiens, UniProt P08253); test: Dose Response validation of uHTS RPN11 inhibitor hits using a MMP-2 Fluorescence assay.; format: functional
Prothrombin = Prothrombin (Bos taurus, UniProt P00735); test: thrombin inhibition, dose response, biochemical, fluorescence polarization, uHTS hits (AID 602369); format: functional
[5] = MDA-MB-231 cell growth inhibition, dose response, cytotoxicity control for RAD54 inhibitor project, CellTiter-Glo luminescence, cherry-pick (AID 651692); format: functional, cell-based
[6] = biological target: T1, DNA repair and recombination protein RAD54-like (Homo sapiens, UniProt Q92698); test: inhibitors of human RAD54 branch migration, confirmation, biochemical, fluorescence, cherry-picked samples, dose series (AID 651657); format: functional
T1 sequence (Q92698 whole entry): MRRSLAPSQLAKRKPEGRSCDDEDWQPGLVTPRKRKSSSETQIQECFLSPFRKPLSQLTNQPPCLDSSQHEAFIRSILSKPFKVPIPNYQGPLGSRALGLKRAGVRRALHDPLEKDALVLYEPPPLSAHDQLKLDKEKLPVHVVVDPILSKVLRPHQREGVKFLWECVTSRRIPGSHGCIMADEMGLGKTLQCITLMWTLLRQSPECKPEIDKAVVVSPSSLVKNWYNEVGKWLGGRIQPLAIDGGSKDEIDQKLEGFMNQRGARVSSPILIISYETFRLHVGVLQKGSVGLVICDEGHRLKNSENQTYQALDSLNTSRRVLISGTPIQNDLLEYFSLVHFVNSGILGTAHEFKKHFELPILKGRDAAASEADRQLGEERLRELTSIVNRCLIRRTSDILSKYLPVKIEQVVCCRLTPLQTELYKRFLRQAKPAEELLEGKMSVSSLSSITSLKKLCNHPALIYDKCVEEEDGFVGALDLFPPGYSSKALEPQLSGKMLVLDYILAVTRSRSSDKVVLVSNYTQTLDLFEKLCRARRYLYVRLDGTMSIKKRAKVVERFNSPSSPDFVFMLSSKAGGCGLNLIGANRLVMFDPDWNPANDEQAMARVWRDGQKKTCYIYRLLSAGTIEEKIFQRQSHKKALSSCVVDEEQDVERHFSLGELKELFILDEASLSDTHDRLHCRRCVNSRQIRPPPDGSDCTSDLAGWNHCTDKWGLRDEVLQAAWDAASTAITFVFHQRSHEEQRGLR

[7] = biological target: T2, DNA repair protein RAD52 homolog (Homo sapiens, UniProt P43351); format: functional, biochemical
T2 sequence (P43351 whole entry): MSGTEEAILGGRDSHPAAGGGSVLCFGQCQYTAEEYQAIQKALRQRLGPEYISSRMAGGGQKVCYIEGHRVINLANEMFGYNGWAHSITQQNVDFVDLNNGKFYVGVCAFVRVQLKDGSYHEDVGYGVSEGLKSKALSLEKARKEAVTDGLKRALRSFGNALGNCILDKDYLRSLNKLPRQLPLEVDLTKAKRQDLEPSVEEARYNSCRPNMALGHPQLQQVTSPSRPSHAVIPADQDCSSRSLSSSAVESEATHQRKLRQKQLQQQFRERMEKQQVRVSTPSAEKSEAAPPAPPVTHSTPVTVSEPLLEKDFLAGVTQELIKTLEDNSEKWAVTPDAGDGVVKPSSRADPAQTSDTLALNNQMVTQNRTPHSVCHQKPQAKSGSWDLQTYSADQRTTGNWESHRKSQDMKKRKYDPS

[8] = biological target: Tyrosine-protein phosphatase non-receptor type 11 (Homo sapiens, UniProt Q06124); test: SHP2 phosphatase inhibition, dose response, selectivity assay for STEP inhibitor project, biochemical (AID 602367); format: functional; conditions: read-out: IC50_Mean
[9] = biological target: Tyrosine-protein phosphatase non-receptor type 5 (Homo sapiens, UniProt P54829); test: STEP phosphatase inhibitors, confirmation, biochemical, fluorescence intensity, uHTS hits (AID 602372); format: functional; conditions: read-out: IC50_Mean
[10] = biological target: Dual specificity protein phosphatase 3 (Homo sapiens, UniProt P51452); test: VHR phosphatase inhibition, dose response, selectivity assay for STEP inhibitor project, biochemical (AID 602374); format: functional; conditions: read-out: IC50_Mean
[11] = biological target: T3, Low molecular weight phosphotyrosine protein phosphatase (Homo sapiens, UniProt P24666); format: functional; conditions: read-out: IC50_Mean
T3 sequence (P24666 whole entry): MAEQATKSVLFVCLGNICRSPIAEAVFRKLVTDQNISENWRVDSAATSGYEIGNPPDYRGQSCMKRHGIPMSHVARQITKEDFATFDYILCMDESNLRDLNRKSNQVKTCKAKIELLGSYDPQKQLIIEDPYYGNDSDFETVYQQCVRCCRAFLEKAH

[12] = biological target: T4, Tyrosine-protein phosphatase non-receptor type 22 (Homo sapiens, UniProt Q9Y2R2); test: PTPN22 phosphatase inhibition, dose response, selectivity assay for STEP inhibitor project, biochemical (AID 624241); format: functional
T4 sequence (Q9Y2R2 whole entry): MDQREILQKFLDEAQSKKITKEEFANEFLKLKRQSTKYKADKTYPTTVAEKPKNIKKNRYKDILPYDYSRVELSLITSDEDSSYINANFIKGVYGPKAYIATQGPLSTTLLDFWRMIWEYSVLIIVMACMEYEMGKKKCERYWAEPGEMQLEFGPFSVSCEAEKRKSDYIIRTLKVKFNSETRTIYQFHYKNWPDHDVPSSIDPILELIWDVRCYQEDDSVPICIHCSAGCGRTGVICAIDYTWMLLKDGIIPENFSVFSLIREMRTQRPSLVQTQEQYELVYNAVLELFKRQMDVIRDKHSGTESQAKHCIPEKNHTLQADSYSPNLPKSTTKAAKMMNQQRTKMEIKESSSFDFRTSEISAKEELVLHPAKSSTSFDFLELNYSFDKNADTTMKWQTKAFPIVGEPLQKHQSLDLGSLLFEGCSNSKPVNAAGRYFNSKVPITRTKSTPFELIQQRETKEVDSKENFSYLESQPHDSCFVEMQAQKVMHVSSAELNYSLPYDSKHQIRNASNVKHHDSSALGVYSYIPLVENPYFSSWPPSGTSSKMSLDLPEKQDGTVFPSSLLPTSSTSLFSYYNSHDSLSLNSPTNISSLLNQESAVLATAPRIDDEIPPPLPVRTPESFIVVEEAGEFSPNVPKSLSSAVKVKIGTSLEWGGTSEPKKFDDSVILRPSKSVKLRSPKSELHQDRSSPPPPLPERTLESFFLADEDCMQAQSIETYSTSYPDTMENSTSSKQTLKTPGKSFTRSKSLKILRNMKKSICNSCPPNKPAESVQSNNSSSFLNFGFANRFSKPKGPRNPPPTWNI

[13] = biological target: T3, Low molecular weight phosphotyrosine protein phosphatase; format: functional; conditions: read-out: IC50_Mean; remark: listed apart in the source
[14] = biological target: T4, Tyrosine-protein phosphatase non-receptor type 22; test: LYP phosphatase inhibition for selectivity, dose response, selectivity assay for LMPTP inhibitor project, biochemical, fluorescence, LYP catalytic domain (AID 652006); format: functional; conditions: read-out: IC50_Mean
Protein Wnt-3a = Protein Wnt-3a (Mus musculus, UniProt P27467); test: SAR analysis of small molecule antagonists of Gli-SUFU in a Wnt3a luminescent reporter assay.; format: functional
[15] = T. cruzi intracellular amastigote growth inhibition, dose response, imaging, CA-I/72 strain, bovine embryo skeletal muscle, dry powder (AID 651885); format: functional, cell-based

Protein Wnt-3a, sequence (P27467 whole entry): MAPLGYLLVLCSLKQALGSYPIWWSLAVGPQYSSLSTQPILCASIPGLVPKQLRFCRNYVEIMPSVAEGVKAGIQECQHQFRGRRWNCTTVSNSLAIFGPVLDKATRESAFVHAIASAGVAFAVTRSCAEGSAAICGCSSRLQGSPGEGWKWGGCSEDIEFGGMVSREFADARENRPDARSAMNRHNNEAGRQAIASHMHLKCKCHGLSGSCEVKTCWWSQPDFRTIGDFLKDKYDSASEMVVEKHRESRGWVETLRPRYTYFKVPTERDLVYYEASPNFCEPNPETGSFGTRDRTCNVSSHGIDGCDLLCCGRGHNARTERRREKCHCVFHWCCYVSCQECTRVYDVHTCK
72 kDa type IV collagenase, sequence (P08253 whole entry): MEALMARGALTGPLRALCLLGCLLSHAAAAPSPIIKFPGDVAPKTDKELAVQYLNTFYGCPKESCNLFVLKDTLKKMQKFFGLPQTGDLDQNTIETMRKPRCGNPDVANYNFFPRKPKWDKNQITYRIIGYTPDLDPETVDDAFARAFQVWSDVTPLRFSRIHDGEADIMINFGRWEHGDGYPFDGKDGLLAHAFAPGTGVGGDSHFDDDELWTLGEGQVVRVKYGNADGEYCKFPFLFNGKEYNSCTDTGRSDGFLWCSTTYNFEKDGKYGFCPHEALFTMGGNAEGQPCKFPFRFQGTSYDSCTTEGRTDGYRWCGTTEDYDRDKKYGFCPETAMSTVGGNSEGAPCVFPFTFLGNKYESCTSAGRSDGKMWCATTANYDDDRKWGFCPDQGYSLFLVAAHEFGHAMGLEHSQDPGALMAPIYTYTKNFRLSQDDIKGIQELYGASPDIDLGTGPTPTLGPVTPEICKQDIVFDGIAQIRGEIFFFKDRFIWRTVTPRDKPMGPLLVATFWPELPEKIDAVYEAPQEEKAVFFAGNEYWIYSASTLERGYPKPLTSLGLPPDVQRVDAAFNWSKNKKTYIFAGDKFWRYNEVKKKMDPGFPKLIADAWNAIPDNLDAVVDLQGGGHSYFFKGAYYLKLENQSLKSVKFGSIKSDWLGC
Tyrosine-protein phosphatase non-receptor type 5, sequence (P54829 whole entry): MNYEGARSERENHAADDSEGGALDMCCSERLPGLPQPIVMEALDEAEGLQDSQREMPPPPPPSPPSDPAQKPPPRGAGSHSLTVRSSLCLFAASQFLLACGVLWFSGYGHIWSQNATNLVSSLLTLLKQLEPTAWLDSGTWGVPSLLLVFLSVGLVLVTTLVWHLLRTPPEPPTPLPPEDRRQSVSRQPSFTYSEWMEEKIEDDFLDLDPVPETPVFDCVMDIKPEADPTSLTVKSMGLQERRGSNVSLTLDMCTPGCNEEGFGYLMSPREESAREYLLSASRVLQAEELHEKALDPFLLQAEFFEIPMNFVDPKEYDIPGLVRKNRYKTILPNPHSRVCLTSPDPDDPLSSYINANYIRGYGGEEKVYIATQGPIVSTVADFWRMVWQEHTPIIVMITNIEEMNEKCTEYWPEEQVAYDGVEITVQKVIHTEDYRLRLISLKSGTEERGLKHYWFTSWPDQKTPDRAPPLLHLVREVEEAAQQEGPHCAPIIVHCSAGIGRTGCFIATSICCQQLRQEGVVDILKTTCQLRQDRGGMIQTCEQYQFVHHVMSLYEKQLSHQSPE
Dual specificity protein phosphatase 3, sequence (P51452 whole entry): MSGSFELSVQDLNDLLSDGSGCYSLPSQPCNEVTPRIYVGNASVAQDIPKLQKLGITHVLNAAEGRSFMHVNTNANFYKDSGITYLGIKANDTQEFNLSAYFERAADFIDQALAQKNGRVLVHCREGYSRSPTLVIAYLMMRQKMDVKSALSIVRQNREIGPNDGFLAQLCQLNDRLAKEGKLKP
26S proteasome non-ATPase regulatory subunit 14, sequence (O00487 whole entry): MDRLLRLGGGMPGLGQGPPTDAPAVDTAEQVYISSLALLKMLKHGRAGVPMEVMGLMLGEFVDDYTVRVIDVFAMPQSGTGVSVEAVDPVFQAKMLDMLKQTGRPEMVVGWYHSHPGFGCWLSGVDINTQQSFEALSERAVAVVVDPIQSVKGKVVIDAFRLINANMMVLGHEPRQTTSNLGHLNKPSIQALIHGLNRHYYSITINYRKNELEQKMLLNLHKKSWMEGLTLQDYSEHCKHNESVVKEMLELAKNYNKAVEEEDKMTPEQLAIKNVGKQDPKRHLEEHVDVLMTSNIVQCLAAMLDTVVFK

SMILES: O=C(NCCCn1ccnc1)Nc1cccc(Cl)c1
- AC50 [1]: 116 µM (active)

SMILES: N#Cc1c(Nc2ccccc2)[n+]([O-])c2ccc(Cl)cc2[n+]1[O-]
- AC50 (Vero): 22.5 µM (active)
- AC50 (BHK-21): 38.5 µM (active)
- AC50 (A549): 20.7 µM (active)

SMILES: O=C(COC(=O)c1ccc([N+](=O)[O-])o1)Nc1ccc(F)cc1
- AC50 [2]: 109 µM (active)

SMILES: COC(=O)c1c(NC(=O)c2ccc(S(=O)(=O)N3CC(C)OC(C)C3)cc2)sc2c1CCN(C)C2 (stereo not given)
- IC50 [3]: 29.5 µM (active)
- IC50 [4]: > 100 µM (inactive)
- IC50 (Prothrombin): 37.4 µM (active)
- AC50 [5]: 24.6 µM (active)
- AC50 [6]: 55.4 µM (active)
- AC50 [7]: 11.8 µM (active)

- IC50 [8]: 2.15 µM (active)
- IC50 [9]: 7.95 µM (active)
- IC50 [10]: 3.4 µM (active)
- IC50 [11]: 9.2 µM (active)
- IC50 [12]: 64.9 µM (inactive)
- IC50 [13]: 9.56 µM (active)
- IC50 [14]: 18.2 µM (active)
SMILES: O=C(N/N=C/c1ccc(Br)s1)c1cccc([N+](=O)[O-])c1

- IC50 (Protein Wnt-3a): > 21.8 µM (inactive)
SMILES: CC1CCN(c2cc(NC(=O)c3ccccc3)ncn2)CC1

SMILES: CC(C)N1C[C@H](C)[C@@H](CN(C)C(=O)OC(C)(C)C)Oc2c(NC(=O)c3ccccn3)cccc2C1=O
- IC50 [15]: 10.3 µM (inconclusive)
